Reference: patent US20250026743A1, “HETEROARYL-LINKED ANALOGS AS MGLU5 NEGATIVE ALLOSTERIC MODULATORS AND METHODS OF MAKING AND USING THE SAME” (Vanderbilt University, priority 2021, published 2025)

What was measured:
cytochrome P450 1A2 = target: T1, cytochrome P450 1A2 (Homo sapiens, UniProt P05177); settings: cited from earlier work
T1 sequence (P05177 1-516): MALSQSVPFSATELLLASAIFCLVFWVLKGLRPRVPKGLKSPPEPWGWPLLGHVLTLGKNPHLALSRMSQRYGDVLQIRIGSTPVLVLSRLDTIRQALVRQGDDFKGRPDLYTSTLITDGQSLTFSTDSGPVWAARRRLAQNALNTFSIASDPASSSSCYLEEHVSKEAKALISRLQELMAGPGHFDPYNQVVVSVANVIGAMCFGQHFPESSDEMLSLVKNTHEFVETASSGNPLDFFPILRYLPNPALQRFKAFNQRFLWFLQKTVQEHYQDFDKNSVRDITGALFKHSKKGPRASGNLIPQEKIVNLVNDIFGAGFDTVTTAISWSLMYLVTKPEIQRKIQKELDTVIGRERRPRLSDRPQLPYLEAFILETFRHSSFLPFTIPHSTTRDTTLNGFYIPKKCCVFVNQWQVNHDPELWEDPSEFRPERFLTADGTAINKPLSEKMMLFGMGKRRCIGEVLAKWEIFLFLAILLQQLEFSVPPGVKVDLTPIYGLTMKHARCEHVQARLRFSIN

[1] = intravenous administration, rhesus monkeys; cited from earlier work
[2] = system: N-methyl-D-aspartate (NMDA) receptor; settings: at higher concentrations; cited from earlier work
mGlu4 = mGlu4 (Homo sapiens, UniProt Q14833); settings: cited from earlier work
mGlu4, sequence (Q14833 33-912): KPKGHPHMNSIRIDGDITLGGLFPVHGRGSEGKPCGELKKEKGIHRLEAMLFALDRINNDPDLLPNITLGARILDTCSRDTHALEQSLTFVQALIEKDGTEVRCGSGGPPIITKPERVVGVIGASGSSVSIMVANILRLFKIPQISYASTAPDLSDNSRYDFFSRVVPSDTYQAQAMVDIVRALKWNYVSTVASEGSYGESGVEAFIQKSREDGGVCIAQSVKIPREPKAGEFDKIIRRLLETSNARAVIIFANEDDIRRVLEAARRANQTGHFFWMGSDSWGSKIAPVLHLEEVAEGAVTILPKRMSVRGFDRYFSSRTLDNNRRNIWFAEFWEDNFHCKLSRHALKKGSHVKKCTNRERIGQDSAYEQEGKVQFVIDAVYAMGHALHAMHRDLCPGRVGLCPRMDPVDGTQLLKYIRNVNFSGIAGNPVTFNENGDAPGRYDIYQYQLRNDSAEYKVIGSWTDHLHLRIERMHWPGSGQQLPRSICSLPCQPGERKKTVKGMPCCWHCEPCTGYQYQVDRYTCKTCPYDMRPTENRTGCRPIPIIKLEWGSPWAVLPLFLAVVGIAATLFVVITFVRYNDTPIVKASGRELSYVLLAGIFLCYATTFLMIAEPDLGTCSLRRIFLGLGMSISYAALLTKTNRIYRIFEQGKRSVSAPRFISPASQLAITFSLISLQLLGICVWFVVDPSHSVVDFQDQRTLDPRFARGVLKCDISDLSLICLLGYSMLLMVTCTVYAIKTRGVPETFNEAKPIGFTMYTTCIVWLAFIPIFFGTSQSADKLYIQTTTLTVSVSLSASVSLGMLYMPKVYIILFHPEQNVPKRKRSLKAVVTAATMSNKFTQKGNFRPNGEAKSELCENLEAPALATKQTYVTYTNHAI

hmGlu5 = target: T2, hmGlu5 (Homo sapiens, UniProt P41594); assay: mGlu5 Ca2+ flux assay in HEK 293A cells (negative allosteric modulation of glutamate EC80 response); assay type: cell-based; settings: for remaining activity at 30 µM: HEK293-A, % Glu max at 30 μM, read-out: hmGlu5 NAM Emin (%); for IC50: HEK 293A cells, Ca2+ flux, glutamate EC80, >10,000 = decrease without plateau, read-out: hmGlu5 NAM IC50
T2 construct: expressed in transfected cells; host or cells: HEK 293A
T2 sequence (P41594 21-1212): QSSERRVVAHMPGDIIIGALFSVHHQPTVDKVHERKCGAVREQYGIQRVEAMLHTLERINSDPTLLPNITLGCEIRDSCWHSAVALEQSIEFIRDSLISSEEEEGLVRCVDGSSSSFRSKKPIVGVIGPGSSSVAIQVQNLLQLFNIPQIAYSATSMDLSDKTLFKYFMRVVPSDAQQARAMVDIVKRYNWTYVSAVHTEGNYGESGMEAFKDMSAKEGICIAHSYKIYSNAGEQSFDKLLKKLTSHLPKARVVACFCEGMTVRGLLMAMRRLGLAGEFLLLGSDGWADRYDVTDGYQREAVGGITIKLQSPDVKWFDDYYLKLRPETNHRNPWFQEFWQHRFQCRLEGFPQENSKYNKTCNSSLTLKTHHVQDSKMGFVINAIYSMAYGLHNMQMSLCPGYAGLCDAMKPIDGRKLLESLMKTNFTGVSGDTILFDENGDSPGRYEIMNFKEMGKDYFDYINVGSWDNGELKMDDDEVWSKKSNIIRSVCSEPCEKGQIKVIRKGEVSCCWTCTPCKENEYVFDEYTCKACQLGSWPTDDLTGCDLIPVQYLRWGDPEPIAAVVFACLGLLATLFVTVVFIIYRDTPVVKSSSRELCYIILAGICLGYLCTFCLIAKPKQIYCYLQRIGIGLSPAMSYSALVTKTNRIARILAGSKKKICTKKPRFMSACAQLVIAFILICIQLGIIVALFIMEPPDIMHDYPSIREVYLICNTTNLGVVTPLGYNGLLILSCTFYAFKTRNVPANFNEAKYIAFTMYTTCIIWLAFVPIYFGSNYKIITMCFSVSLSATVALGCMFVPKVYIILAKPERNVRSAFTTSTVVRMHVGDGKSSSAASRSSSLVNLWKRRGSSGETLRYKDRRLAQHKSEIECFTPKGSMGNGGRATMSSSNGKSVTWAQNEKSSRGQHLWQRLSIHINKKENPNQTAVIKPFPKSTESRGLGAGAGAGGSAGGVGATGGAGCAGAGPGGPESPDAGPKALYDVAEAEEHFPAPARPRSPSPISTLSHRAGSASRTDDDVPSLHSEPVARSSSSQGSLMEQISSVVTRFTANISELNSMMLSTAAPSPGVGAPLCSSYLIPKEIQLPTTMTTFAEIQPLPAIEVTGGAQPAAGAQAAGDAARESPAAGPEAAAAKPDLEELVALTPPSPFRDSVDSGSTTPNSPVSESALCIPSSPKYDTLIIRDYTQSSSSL
How it was run: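 HEK 293A cells stably expressing rat or human mGlu5, Fluo-4 AM loaded; compound added 2.3 min before glutamate EC20, then EC80; Ca2+ fluorescence peak amplitudes (F/F0) normalised to glutamate max. IC50 from 4-parameter logistic fit, 10-point 1:3 curves, top 30 μM; partial NAMs plateau above 10% Glu Max.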

Row | remaining activity at 30 µM (hmGlu5) [%] | IC50 (hmGlu5) [nM] | Compound | also measured
1 | – | – | Cc1nc(C#Cc2cccnc2)cs1 [MTEP, 3-[(2-methyl-1,3-thiazol-4-yl)ethynyl]pyridine] | inhibition of cytochrome P450 1A2 (cytochrome P450 1A2): potent inhibitor; clearance [1]: efficiently cleared
2 | – | – | Cc1cccc(C#Cc2ccccc2)n1 [MPEP, 2-methyl-6-(phenylethynyl) pyridine] | inhibition of NMDA receptor activity [2]: directly inhibit; modulation of mGlu4 (mGlu4): positive allosteric modulator
3 | 2 | 946 | Cc1nc(-c2nnc(-c3ccc(F)cn3)o2)cc(-c2cncc(F)c2)c1OC(C)C [Compound 45, 2-(5-fluoro-5′-isopropoxy-6′-methyl-[3,4′-bipyridin]-2′-yl)-5-(5-fluoropyridin-2-yl)-1,3,4-oxadiazole] | –
4 | 74 | > 10000 | Cc1ccncc1-c1cc(-c2noc(-c3cccnn3)n2)nc(C)c1F [Compound 92, 3-(5′-fluoro-4,6′-dimethyl-[3,4′-bipyridin]-2′-yl)-5-(pyridazin-3-yl)-1,2,4-oxadiazole] | –
5 | 5 | 624 | [2H]C([2H])([2H])Oc1c(-c2cncc(F)c2)cc(-c2nc(-c3ccc(F)cn3)no2)nc1C [Compound 103, 5-(5-fluoro-5′-(methoxy-d3)-6′-methyl-[3,4′-bipyridin]-2′-yl)-3-(5-fluoropyridin-2-yl)-1,2,4-oxadiazole] | –
6 | 2 | 663 | COc1c(-c2cncc(F)c2)cc(-c2n[nH]c(-c3ccc(F)cc3)n2)nc1C [Compound 102, 5-fluoro-6′-(5-(4-fluorophenyl)-1H-1,2,4-triazol-3-yl)-3′-methoxy-2′-methyl-3,4′-bipyridine] | –
